Test results: PMC7663979, “Design of Novel 4-Aminobenzofuroxans and Evaluation of Their Antimicrobial and Anticancer Activity” (International Journal of Molecular Sciences, 2020)
Where “and” joins values, the source holds several entries; their conditions need not be identical. Identical values can stand only once. Like-named read-outs stand apart in the source and are kept apart here.

How the values were obtained:
M-HeLa = test: Cytotoxicity assay (Cytell Cell Viability BioApp), M-HeLa; assay type: cell-based, human; settings: for IC50: Homo sapiens, M-HeLa, mean ± SD, three experiments; for SI M-HeLa: selectivity index = IC50 normal cells (Chang liver) / IC50 cancer cells, n.s. = no selectivity
Chang Liver = test: Cytotoxicity assay (Cytell Cell Viability BioApp), normal Chang liver cells; assay type: cell-based; settings: Homo sapiens, mean ± SD, three experiments, read-out: IC50 Chang Liver (normal cell line)
[1] = test system: Vibrio aquamarinus DSM 26054; set-up: method as in PMID 31450696; settings: control = 100%, data first published in ref 40, cited from earlier work
PANC-1 = test: Cytotoxicity assay (Cytell Cell Viability BioApp), PANC-1; assay type: cell-based, human; settings: for IC50: Homo sapiens, PANC-1, mean ± SD, three experiments; for SI PANC-1: selectivity index = IC50 normal cells (Chang liver) / IC50 cancer cells, n.s. = no selectivity
M-HeLa cells [2] = test: Cell cycle analysis, propidium iodide, flow cytometry; assay type: cell-based, human; settings: 15 μM, 24 h; control cells 34.28%
Protocol: (§1) Cell Culture. M-HeLa cells at 10^6 cells/ well in a final volume of 2 mL were seeded into 6-well plates. After 24 h of incubation, various concentrations of compounds 3c and 3f were added to wells.
The DNA content and cell-cycle distribution after […] were estimated by flow cytometry. Cell seeding, drug treatment and ethanol fixation were similar to cell proliferation assay. After washing with PBS, […] were suspended in 150 μL of PBS, then 0.5 mL phosphate-citrate buffer (0.05 M, pH = 4.0) was added and the suspension was incubated at room temperature for 5 min to facilitate the extraction of low molecular weight DNA. Following centrifugation the cells were resuspended in 150 μL DNA staining solution (20 μg/mL propidium iodide, 200 μg/mL […], and 0.1% Triton X-100) and incubated in the CO2 incubator (37 °C for 30 min). Cell cycle distribution was determined by fluorescence-activated cell sorting analysis of propidium iodide-stained ethanol-fixed cells using a Guava EasyCyte (Guava easyCyte, MERCK, Kenilworth, NJ, USA).

T98G = test: cells; assay type: cell-based, human; settings: for IC50: Homo sapiens, T98G, read-out: IC50 T98G; for SI T98G: selectivity index = IC50 normal cells (Chang liver) / IC50 cancer cells, n.s. = no selectivity
M-HeLa cells [3] = test: Cell apoptosis analysis by flow cytometry (annexin V-Alexa Fluor 647 / propidium iodide); assay type: cell-based, human; settings: 24 h
Protocol: as §1
Cell Apoptosis Analysis. The cells were harvested at 2000 rpm for 5 min and, then, washed twice with ice-cold PBS, followed by resuspension in binding buffer 100 μL. Next, the samples were incubated with 0.35 μL of annexin V-Alexa Fluor 647 and 0.1 μL of propidium iodide for 40 min at room temperature in the dark. Finally, the cells were analyzed by flow cytometry (Guava easyCyte, MERCK, Kenilworth, NJ, USA). The experiments were repeated three times.

MCF7 = test: Cytotoxicity assay (Cytell Cell Viability BioApp), MCF7; assay type: cell-based, human; settings: for IC50: Homo sapiens, MCF7, mean ± SD, three experiments; for SI MCF7: selectivity index = IC50 normal cells (Chang liver) / IC50 cancer cells, n.s. = no selectivity
M-HeLa cells [4] = test: Mitochondrial membrane potential, JC-10, flow cytometry; assay type: cell-based, human; settings: ≥ IC 50 concentrations
Protocol: as §1
The cells were harvested at 2000 rpm for 5 min and, then, washed twice with ice-cold PBS, followed by resuspension in JC-10 (10 µg/mL) and incubation at 37 °C for 10 min. After the cells were rinsed three times and suspended in PBS, the JC-10 fluorescence was observed by flow cytometry.

In the case of O=[N+]([O-])c1c(Cl)cc2c(no[n+]2[O-])c1Nc1cccc(O)c1 [Compound 3f, 6-chloro-4-((3-hydroxyphenyl)amino)-5-nitrobenzofuroxan], the IC50 (M-HeLa) is reported as 16 ± 1.3 µM, the “SI M-HeLa” value (M-HeLa) is reported as 4.0 and the IC50 (Chang Liver) is reported as 64.4 ± 5.7 µM. For the same compound, the “Biofilm Formation, %” value ([1]; compound concentration 1 × 10^−4 M) was 98.97%, the “Biofilm Formation, %” value ([1]; compound concentration 1 × 10^−5 M) was 96.57% and the “Biofilm Formation, %” value ([1]; compound concentration 1 × 10^−6 M) was 43.56% and 43.56 * %. The “Biofilm Formation, %” value ([1]; compound concentration 1 × 10^−7 M) was 11.34% and 11.34 * %, the “Biofilm Formation, %” value ([1]; compound concentration 1 × 10^−8 M) was 9.31% and 9.31 * % and the “Biofilm Formation, %” value ([1]; compound concentration 1 × 10^−9 M) was 66.58%. The IC50 (PANC-1) was over 100 µM, the “SI PANC-1” value (PANC-1) was “n.s” and the “cells in G0/G1 phase (G1)” value (M-HeLa cells [2]) was 66.8%. For the same compound, the IC50 (T98G) was 59.8 ± 4.8 µM, the “SI T98G” value (T98G) was 1.1 and the “D—dead cells” value (M-HeLa cells [3]; 10 μM) was 5.03%. The “Ea—early apoptotic cells” value (M-HeLa cells [3]; 10 μM) was 14.46%, the “La—late apoptotic cells” value (M-HeLa cells [3]; 10 μM) was 12.79% and the “L—living cells” value (M-HeLa cells [3]; 10 μM) was 67.72%. For the same compound, the “D—dead cells” value (M-HeLa cells [3]; 15 μM) was 8.16%, the “Ea—early apoptotic cells” value (M-HeLa cells [3]; 15 μM) was 17.59% and the “La—late apoptotic cells” value (M-HeLa cells [3]; 15 μM) was 16.83%. For the same compound, the “L—living cells” value (M-HeLa cells [3]; 15 μM) was 57.42%, the IC50 (MCF7) was 8.1 ± 0.7 µM and the “SI MCF7” value (MCF7) was 8.0.
With O=[N+]([O-])c1c(Cl)cc2c(no[n+]2[O-])c1NCCCN1CCOCC1 [Compound 5c, 6-chloro-4-((3-morpholinopropyl)amino)-5-nitrobenzofuroxan] the IC50 (M-HeLa) was 49.3 ± 3.9 µM, the “SI M-HeLa” value (M-HeLa) was over 2 and the IC50 (Chang Liver) was over 100 µM. For the same compound, the “intensity of red fluorescence (JC-10) compared to the control” value (M-HeLa cells [4]) was “did not change significantly”, the IC50 (PANC-1) was 38 ± 2.9 µM and the “SI PANC-1” value (PANC-1) was over 2.6. The IC50 (T98G) was over 100 µM, the “SI T98G” value (T98G) was “n.s” and the IC50 (MCF7) was over 100 µM. The “SI MCF7” value (MCF7) was “n.s”.
For O=[N+]([O-])c1c(Cl)cc2c(no[n+]2[O-])c1N1CCCC1 [Compound 5g, 6-chloro-5-nitro-4-(pyrrolidin-1-yl)benzofuroxan], the IC50 (M-HeLa) was over 100 µM, the “SI M-HeLa” value (M-HeLa) was “n.s” and the IC50 (Chang Liver) was over 100 µM. For the same compound, the “intensity of red fluorescence (JC-10) compared to the control” value (M-HeLa cells [4]) was “did not change significantly”, the IC50 (PANC-1) was over 100 µM and the “SI PANC-1” value (PANC-1) was “n.s”. The IC50 (T98G) was over 100 µM, the “SI T98G” value (T98G) was “n.s” and the IC50 (MCF7) was over 100 µM. For the same compound, the “SI MCF7” value (MCF7) was “n.s”.
Compound CC(C)c1ccc(Nc2c([N+](=O)[O-])cc([N+](=O)[O-])c3no[n+]([O-])c23)cc1 [Compound 6, 7-(4-isopropylphenylamino)-4,6-dinitrobenzofuroxan] has a melting point of 110 to 111 °C.
